The target in the experiment is Tumour suppressor p53/oncoprotein Mdm2 (Homo sapiens, UniProt Q00987). The experiment is described as follows: Inhibition of GST-tagged MDM2 (23 to 117 residues) (unknown origin) assessed as inhibition of MDM2/biotinylated wild type human p53 (16 to 27 residues) interaction by measuring reactivation of p53 incubated for 15 mins by AlphaScreen assay. It counts as protein assay. (In general: In Alpha technology, singlet oxygen from a donor bead excites a nearby acceptor bead.)

From ChEMBL document CHEMBL4715930, “Reactivation of the Guardian of the Genome P53: A Promising Strategy for Treatment of Cancer” (ACS Med Chem Lett, 2021) come the findings set out here.

Broadly, the IC50 is the point on the concentration scale where inhibition reaches its midpoint.

Sequence of Tumour suppressor p53/oncoprotein Mdm2 (P04637 whole entry, the tested form may be a part): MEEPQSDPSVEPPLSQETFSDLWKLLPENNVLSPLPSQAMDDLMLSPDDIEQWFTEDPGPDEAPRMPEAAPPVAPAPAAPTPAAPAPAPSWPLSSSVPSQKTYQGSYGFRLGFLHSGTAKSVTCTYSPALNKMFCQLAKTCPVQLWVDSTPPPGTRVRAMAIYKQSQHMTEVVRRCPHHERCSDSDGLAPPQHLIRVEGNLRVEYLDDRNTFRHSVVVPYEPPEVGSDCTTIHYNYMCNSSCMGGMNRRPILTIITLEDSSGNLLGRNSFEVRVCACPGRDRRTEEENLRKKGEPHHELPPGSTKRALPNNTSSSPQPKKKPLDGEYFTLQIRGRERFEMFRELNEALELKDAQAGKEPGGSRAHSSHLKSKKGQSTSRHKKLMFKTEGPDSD
Sequence of Tumour suppressor p53/oncoprotein Mdm2 (Q00987 whole entry, the tested form may be a part): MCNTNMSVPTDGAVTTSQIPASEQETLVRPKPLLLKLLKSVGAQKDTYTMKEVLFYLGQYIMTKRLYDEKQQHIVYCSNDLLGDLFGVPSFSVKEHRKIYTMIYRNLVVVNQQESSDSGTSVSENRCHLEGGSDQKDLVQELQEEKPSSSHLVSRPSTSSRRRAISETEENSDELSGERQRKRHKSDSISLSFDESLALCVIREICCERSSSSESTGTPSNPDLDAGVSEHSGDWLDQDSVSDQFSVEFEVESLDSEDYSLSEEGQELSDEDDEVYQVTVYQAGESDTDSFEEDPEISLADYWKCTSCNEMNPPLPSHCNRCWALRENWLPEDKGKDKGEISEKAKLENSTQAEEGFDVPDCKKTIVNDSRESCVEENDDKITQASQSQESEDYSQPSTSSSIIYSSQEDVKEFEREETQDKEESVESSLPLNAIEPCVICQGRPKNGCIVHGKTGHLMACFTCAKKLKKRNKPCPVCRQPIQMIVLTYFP

On to `CCOc1cccc(CN2[C@H]3Cc4c5cc(C)c(C(=O)NC)cc5nn4[C@H]3[C@H](c3cccc(Cl)c3F)[C@]23C(=O)Nc2nc(Cl)ccc23)c1`, for which the IC50 is 5 nM.

For `O=C(O)c1ccc2c(c1)nc1n2CC[C@@H]2[C@H]1[C@H](c1cccc(Cl)c1F)[C@]1(C(=O)Nc3cc(Cl)ccc31)N2CC1CC1`, the half-maximal inhibitory concentration (IC50) is 79 nM.

Turning to `Cc1c(C(=O)N2CCCCC2)ccn2c3c(nc12)[C@@H]1[C@H](CC3)N(CC2CC2)[C@@]2(C(=O)Nc3cc(Cl)ccc32)[C@H]1c1ccnc(Cl)c1F`, the IC50 is 10 nM.
